This note sets out measurements from PubChem BioAssay (NCI).

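Interpolation was linear, between the two tested concentrations surrounding the appropriate level; five concentrations were tested over 48 hours in 96-well plates. GI50: concentration for 50% inhibition of growth. The concentration for full growth arrest is given as TGI.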 Where only a bound is given, the exact number is not on record here.

Among the test systems are A549 NSCLC; HOP-92 NSCLC; IGROV1 ovarian; RXF 393 renal; SK-MEL-2 melanoma; SK-MEL-28 melanoma; UO-31 renal; EKVX NSCLC; MDA-MB-231 breast; SNB-19 CNS.
What all share (assay): NCI-60 cell line screen, 48 h

Take `CCCCCCOc1ccc(C(=N)N(CCCC)CCCC)c2ccccc12`: the GI50 in the test with A549 NSCLC was 1.76 µM; with HOP-92 NSCLC it was 1.07 µM; in the test on IGROV1 ovarian, 1.34 µM; with RXF 393 renal, 1.28 µM; in the test with SK-MEL-2 melanoma it was 1.72 µM; in the test with SK-MEL-28 melanoma, 1.77 µM. Besides, in the test on UO-31 renal, the GI50 was 1.14 µM. Besides, the TGI with A549 NSCLC was 3.31 µM; in the test on HOP-92 NSCLC it was 2.6 µM; in the test on IGROV1 ovarian, 2.86 µM; in the test on RXF 393 renal it was 2.74 µM; in the test with SK-MEL-2 melanoma, 3.23 µM; in the test with SK-MEL-28 melanoma, 3.2 µM. In the test with UO-31 renal, this compound registered a TGI of 2.55 µM.
Regarding `C=C1CC(Cn2cc(Br)c(=O)[nH]c2=O)(c2ccc(-c3ccccc3)cc2)OC1=O` (configuration not stated), the TGI turned out to be 21.6 µM with A549 NSCLC; 7.42 µM in the test on EKVX NSCLC; 0.113 µM with HOP-92 NSCLC; 2.96 µM in the test on IGROV1 ovarian; 9 µM in the test with MDA-MB-231 breast; 3.26 µM in the test with SK-MEL-2 melanoma. The TGI in the test with SK-MEL-28 melanoma was 0.671 µM; with SNB-19 CNS, 26.8 µM; in the test with UO-31 renal, 3.93 µM.
As for `C=CCOC(=O)CCCCCCCCCCCCCCCOC(=O)C1=C(CCC[C@@H](C)O[Si](C)(C)C(C)(C)C)NC(=O)N2[C@H](CC3(CC/C=C\[C@H](CC)O[Si](C(C)C)(C(C)C)C(C)C)OCCO3)CC[C@H]12`, the TGI in the test on A549 NSCLC was above 100 µM; with EKVX NSCLC it was above 100 µM; in the test on HOP-92 NSCLC, 90.2 µM; with MDA-MB-231 breast, above 100 µM; in the test with SK-MEL-2 melanoma it was above 100 µM; in the test on SK-MEL-28 melanoma, above 100 µM. In addition, the TGI in the test with SNB-19 CNS and with UO-31 renal was above 100 µM throughout.
`CCCCCCOP(=O)(OCCCCCC)OC(C(=O)OC)C(F)(F)F` (configuration not stated): the TGI with A549 NSCLC, in the test on EKVX NSCLC, with HOP-92 NSCLC, with IGROV1 ovarian, with MDA-MB-231 breast and in the test on SK-MEL-2 melanoma was above 100 µM throughout. Also, the TGI in the test with SK-MEL-28 melanoma, in the test on SNB-19 CNS and in the test with UO-31 renal was above 100 µM each time.
With `NS(=O)(=O)c1cc(S(N)(=O)=O)c(NC(=O)N(c2ccccc2)c2ccccc2)c(Cl)c1Cl`, the TGI in the test with A549 NSCLC is above 100 µM; with EKVX NSCLC, 62.8 µM; in the test on HOP-92 NSCLC it was 27 µM; in the test on IGROV1 ovarian it was 25.6 µM; with MDA-MB-231 breast it was above 100 µM; in the test on SK-MEL-2 melanoma it was 82.7 µM. Also, the results for the TGI in the test on SK-MEL-28 melanoma, in the test on SNB-19 CNS and in the test with UO-31 renal were above 100 µM, above 100 µM and 94.1 µM, respectively.
Turning to `CC12CC(c3ccccc3O1)C(C(=O)Nc1cccc(F)c1)C(=O)N2` (configuration not stated), the TGI in the test on A549 NSCLC, in the test on EKVX NSCLC, with IGROV1 ovarian, in the test on SK-MEL-2 melanoma, in the test on SK-MEL-28 melanoma and with SNB-19 CNS was above 100 µM throughout. In the test with UO-31 renal, this compound showed a TGI of 24.9 µM.
Regarding `COC(=O)n1c(C[P+](c2ccccc2)(c2ccccc2)c2ccccc2)cc2ccccc21`, the TGI with A549 NSCLC is 12.4 µM; in the test on EKVX NSCLC it was 11.1 µM; in the test with HOP-92 NSCLC it was 3.34 µM; with IGROV1 ovarian it was 12 µM; with RXF 393 renal it was 14.4 µM; in the test with SK-MEL-2 melanoma, 4.97 µM. Also, the values for the TGI with SK-MEL-28 melanoma and in the test with SNB-19 CNS were 15.7 µM and 10.8 µM, respectively.
For the compound `O=C1CSc2nnc(CCCCCCCCc3nnc4n3NC(=O)CS4)n2N1`, the TGI with A549 NSCLC, with EKVX NSCLC, with HOP-92 NSCLC, in the test on IGROV1 ovarian, in the test on MDA-MB-231 breast and in the test with SK-MEL-2 melanoma was above 100 µM each time. The TGI with SK-MEL-28 melanoma, with SNB-19 CNS and with UO-31 renal was above 100 µM throughout.
Regarding `CC(=O)Nc1ccc(C(=O)N2N=C(C)/C(=C/c3ccc(O)cc3)C2=O)cc1`, the TGI with A549 NSCLC, in the test with EKVX NSCLC, in the test on SK-MEL-2 melanoma, in the test on SK-MEL-28 melanoma, in the test on SNB-19 CNS and in the test with UO-31 renal was above 100 µM in each case.
As to `Nc1c(N=Nc2ccc(-c3ccc(N=Nc4c(O)ccc5cc(S(=O)(=O)O)cc(S(=O)(=O)O)c45)cc3)cc2)c(S(=O)(=O)O)cc2cc(S(=O)(=O)O)c(N=Nc3ccccc3)c(O)c12`, the TGI in the test with A549 NSCLC, with EKVX NSCLC, with HOP-92 NSCLC, in the test on IGROV1 ovarian, in the test with RXF 393 renal and with SK-MEL-2 melanoma was above 100 µM in each case. The TGI in the test with SK-MEL-28 melanoma and in the test with SNB-19 CNS was above 100 µM each time.
Take `c1ccc([P+](c2ccccc2)(c2ccccc2)c2ccc([P+](c3ccccc3)(c3ccccc3)c3ccccc3)cc2)cc1`: the TGI in the test on A549 NSCLC, in the test with IGROV1 ovarian, in the test with MDA-MB-231 breast, in the test on RXF 393 renal, with SK-MEL-2 melanoma and in the test with SK-MEL-28 melanoma was above 100 µM throughout. Moreover, the TGI in the test on SNB-19 CNS and in the test with UO-31 renal was above 100 µM in each case.
Turning to `CCOC1=C2NC(Cc3ccc(F)cc3)=NC2C(=O)c2ccccc21` (configuration not stated), the TGI in the test on EKVX NSCLC is 85.7 µM; in the test on HOP-92 NSCLC, 51.6 µM; in the test with IGROV1 ovarian, above 100 µM; in the test on RXF 393 renal, 73.5 µM; with SK-MEL-2 melanoma, 44.2 µM; in the test with SK-MEL-28 melanoma, 67.8 µM. Besides, the TGI in the test with UO-31 renal stood at 25.1 µM.
Consider `c1ccc(OCCSCCCCCCCCCCSCCOc2ccccc2)cc1`, for which the TGI with A549 NSCLC, in the test with EKVX NSCLC, in the test with IGROV1 ovarian, in the test with RXF 393 renal, in the test on SK-MEL-2 melanoma and in the test with SK-MEL-28 melanoma was above 100 µM each time. Besides, the TGI in the test with SNB-19 CNS and in the test with UO-31 renal was above 100 µM in each case.
In the case of `C/C(=C\Cc1cc(O)ccc1O)CCc1c(C)cc(O)c(C=O)c1C`, the TGI was above 100 µM with A549 NSCLC; above 100 µM in the test on EKVX NSCLC; 35.3 µM with HOP-92 NSCLC; 50.5 µM in the test on IGROV1 ovarian; 37.1 µM with RXF 393 renal; 58.6 µM in the test on SK-MEL-2 melanoma. In addition, the TGI in the test on SK-MEL-28 melanoma is 54.7 µM; in the test on SNB-19 CNS, above 100 µM; with UO-31 renal, 78.1 µM.
With `O=S1(=O)OCCOS(=O)(=O)C1Cc1nc2ccccc2[nH]1`, the TGI with A549 NSCLC, with EKVX NSCLC, with HOP-92 NSCLC, in the test with MDA-MB-231 breast, in the test on SK-MEL-2 melanoma and in the test with SK-MEL-28 melanoma was above 100 µM in each case. Besides, the TGI with SNB-19 CNS and in the test on UO-31 renal was above 100 µM each time.
